B1: Fas-L: FAS ligand (FASLG/TNFSF6) added to Jurkat clones to trigger apoptosis (protein, UniProt P48023 130-281, looked up)
Tumor necrosis factor ligand …: QIGHPSPPPEKKELRKVAHLTGKSNSRSMPLEWEDTYGIVLLSGVKYKKGGLVINETGLYFVYSKVYFRGQSCNNLPLSHKVYMRNSKYPQDLVMMEGKMMSYCTTGQMWARSSYLGAVFNLTSADHLYVNVSELSLVNFEESQTFFGLYKL

Legend:
[1] = test system: shRNA CTRL Jurkat clones (E6.1 Jurkat T cell line); assay: Apoptosis assay (annexin V-FITC and PI staining, flow cytometry) in shRNA CTRL Jurkat clones; format: cell-based; details: for Apoptosis response % shRNACTRL: shRNA CTRL Jurkat clones
Protocol: (§1) The apoptosis was assessed by flow cytometry. Columns with standard deviation represent the mean percentage of 3 experiments.
(§2) Histograms of gated cells represent early and late apoptotic populations. As shown in the left panel, 42% of treated shRNA CTRL cells are in apoptosis whereas 18% of apoptotic shRNA BACH2 cells are observed after BACH2 repression
(§3) The inventors firstly added FAS ligand (FASLG/TNFSF6) or PMA (phorbol myristic acetate) (see Table 2) to control or to cells transfected with BACH2 sh RNA. They further treated control and transfected cells (with BACH2 sh RNA) by a 18-hours stimulation with anti-CD2, anti-CD28 or anti-CD3 antibodies.

[2] = test system: Fas L mRNA in CD4+ cells from a patient having a hemizigous deletion of BACH2 gene; assay: Fas L mRNA abundance in CD4+ cells ex vivo in function of etoposide treatment; format: cell-based, human; details: CD4+ cells having lost one copy of BACH2, compared with control CD4+ cells from a healthy donor
Text: This observation is further confirmed by the ex-vivo analysis shown at FIG. 8, wherein, clearly, CD4+ T cells having hemizigous BACH2 fail to express FasL mRNA.

[3] = test system: shRNA BACH2 Jurkat clones (E6.1 Jurkat T cell line); assay: Apoptosis assay (annexin V-FITC and PI staining, flow cytometry) in shRNA BACH2 Jurkat clones; format: cell-based; details: for Apoptosis response % shRNABACH2: shRNA BACH2 Jurkat clones; for Apoptosis response Difference %: shRNACTRL minus shRNABACH2 Jurkat clones
Protocol: as §1, §2, §3

| Molecule | cells in apoptosis (early and late apoptotic populations) ([1]; clone shRNA CTRL-A, 1 μg/ml etoposide, 18 hrs) [%] | Apoptosis response % shRNACTRL [1] | FasL mRNA production upon etoposide exposure [2] | reduction in the number of apoptotic cells (AnnexinV+) in the BACH2-repressed clone ([3]; clone shRNA BACH2-C versus shRNA control-A, 1 μg/ml of etoposide) | apoptotic cells (early and late apoptotic populations) ([3]; clone shRNA BACH2-C, 1 μg/ml etoposide, 18 hrs) [%] | Apoptosis response % shRNABACH2 [3] | Apoptosis response Difference % [3] [%] |
| --- | --- | --- | --- | --- | --- | --- | --- |
| COc1cc([C@@H]2c3cc4c(cc3[C@@H](O[C@@H]3O[C@@H]5CO[C@@H](C)O[C@H]5[C@H](O)[C@H]3O)[C@H]3COC(=O)[C@H]23)OCO4)cc(OC)c1O [Etoposide] | 42 | 41.2 (+/−4.94) % | fails to produce FasL | two-fold reduction | 18 | 18.27 (+/−2.71) % | 23 |
| CCCCCCCCCCCCCC(=O)O[C@@H]1[C@@H](C)[C@@]2(O)[C@@H](C=C(CO)C[C@]3(O)C(=O)C(C)=C[C@@H]23)[C@@H]2C(C)(C)[C@]12OC(C)=O [PMA, phorbol myristic acetate] |  | 16.17 (+/−2.26) % |  |  |  | 16.7 (+/−6.12) % | −0.5 |
| B1 |  | 33.18 (+/−2.32) % |  |  |  | 34.51 (+/−3.75) % | −1.3 |

— US9828644B2, “BACH2 repression in cells” (UNIVERSITE LIBRE DE BRUXELLES, priority 2010, dated 2017)
